Test results as given in PubChem BioAssay AID328 (DTP/NCI, 2004).
Values joined by “and” are separate entries in the source; they are usually repeats but may differ in a detail not shown here. Identical values can stand only once. Inconclusive results and toxic doses are left out. How the source made its calls: active means survival T/C of 150% or more; inactive means T/C below 125% in these data.

Tested on: BDF1 mice, P388 leukemia ip, median survival T/C
Experiment: NCI In Vivo Anticancer Drug Screen. Data for tumor model P388 Leukemia (intraperitoneal) in B6D2F1 (BDF1) mice
Details: endpoint: median survival time, higher = longer survival
How it was run: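 T/C = treated-group survival ÷ vehicle-control survival; tumour transplanted into mice before dosing.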

[1] = dose: 100.0 mg/kg/injection, schedule: Q01DX009 (ip), vehicle: saline with Tween-80
[2] = dose: 100.0 mg/kg/injection, schedule: Q01DX009 (ip), vehicle: saline
[3] = dose: 100.0 mg/kg/injection, schedule: Q04DX003 (ip), vehicle: saline
[4] = dose: 200.0 mg/kg/injection, schedule: Q01DX001 (ip), vehicle: saline
[5] = dose: 200.0 mg/kg/injection, schedule: Q01DX009 (ip), vehicle: saline with Tween-80
[6] = dose: 400.0 mg/kg/injection, schedule: Q01DX009 (ip), vehicle: saline with Tween-80
[7] = dose: 12.5 mg/kg/injection, schedule: Q01DX009 (ip), vehicle: saline with Tween-80

Measured: T/C

O=C1NC(=O)C(=O)N1
inactive: dose: 100.0 mg/kg/injection, schedule: Q01DX001 (ip), vehicle: saline 109 % of control | [1] 100 % of control | [2] 100 % of control | [3] 110 % of control | [4] 100 % of control | [5] 104 % of control | dose: 200.0 mg/kg/injection, schedule: Q01DX009 (ip), vehicle: saline 100 % of control | dose: 200.0 mg/kg/injection, schedule: Q04DX003 (ip), vehicle: saline 95 % of control | dose: 400.0 mg/kg/injection, schedule: Q01DX001 (ip), vehicle: saline 100 % of control | [6] 95 % of control | dose: 400.0 mg/kg/injection, schedule: Q01DX009 (ip), vehicle: saline 100 % of control | dose: 400.0 mg/kg/injection, schedule: Q04DX003 (ip), vehicle: saline 120 % of control

CCCCCCCCCCCCCCCC(=O)N(CCC#N)CCC#N
inactive: dose: 66.0 mg/kg/injection, schedule: Q01DX009 (ip), vehicle: saline with Tween-80 91 % of control | [1] 91 % of control | dose: 150.0 mg/kg/injection, schedule: Q01DX009 (ip), vehicle: saline with Tween-80 108 % of control

CCOC(=O)/C=C(/C)SC1=CC(=O)c2ccccc2C1=O
inactive: dose: 1.56 mg/kg/injection, schedule: Q01DX009 (ip), vehicle: saline with Tween-80 107 % of control and 113 % of control | dose: 3.13 mg/kg/injection, schedule: Q01DX009 (ip), vehicle: saline with Tween-80 106 % of control and 107 % of control | dose: 6.25 mg/kg/injection, schedule: Q01DX009 (ip), vehicle: saline with Tween-80 104 % of control and 117 % of control | [7] 107 % of control and 115 % of control

Cc1cccc(Br)[n+]1[O-]
inactive: dose: 25.0 mg/kg/injection, schedule: Q01DX009 (ip), vehicle: saline 90 % of control | dose: 25.0 mg/kg/injection, schedule: Q04DX003 (ip), vehicle: saline 95 % of control | dose: 50.0 mg/kg/injection, schedule: Q01DX001 (ip), vehicle: saline 100 % of control | [2] 95 % of control | [3] 95 % of control | [4] 100 % of control

COC(=O)c1cc(=O)nc(N/N=C/c2ccc(OC)cc2)s1
inactive: dose: 50.0 mg/kg/injection, schedule: Q01DX005 (ip), vehicle: saline with Tween-80 102 % of control | dose: 100.0 mg/kg/injection, schedule: Q01DX005 (ip), vehicle: saline with Tween-80 102 % of control | dose: 200.0 mg/kg/injection, schedule: Q01DX005 (ip), vehicle: saline with Tween-80 102 % of control

C#CCSC(=N)N
inactive: dose: 12.5 mg/kg/injection, schedule: Q01DX009 (ip), vehicle: saline 100 % of control | dose: 33.0 mg/kg/injection, schedule: Q01DX009 (ip), vehicle: saline 109 % of control and 118 % of control | dose: 37.5 mg/kg/injection, schedule: Q04DX003 (ip), vehicle: saline 109 % of control | dose: 50.0 mg/kg/injection, schedule: Q01DX009 (ip), vehicle: saline 100 % of control and 115 % of control | dose: 75.0 mg/kg/injection, schedule: Q04DX003 (ip), vehicle: saline 109 % of control

Cc1ccccc1OCCCCCl
inactive: [1] 115 % of control | [5] 107 % of control | [6] 115 % of control

COc1cc2ccc(CCN)cc2cc1OC
inactive: [7] 95 % of control | dose: 25.0 mg/kg/injection, schedule: Q01DX009 (ip), vehicle: saline with Tween-80 108 % of control | dose: 50.0 mg/kg/injection, schedule: Q01DX009 (ip), vehicle: saline with Tween-80 87 % of control

CCCCCCCCCCCCOc1ccccc1
inactive: dose: 50.0 mg/kg/injection, schedule: Q04DX003 (ip), vehicle: saline with Tween-80 100 % of control | dose: 100.0 mg/kg/injection, schedule: Q04DX003 (ip), vehicle: saline with Tween-80 109 % of control | dose: 200.0 mg/kg/injection, schedule: Q04DX003 (ip), vehicle: saline with Tween-80 100 % of control
